# Patent US20250281499A1, “FUSED AMINO PYRIMIDINE COMPOUNDS FOR TREATMENT OF NEUROPATHIC AND NEURO-INFLAMMATORY PAIN” (Ovid Therapeutics Inc., priority 2024, published 2025)
# Target: T1, KCC2-S940A (Homo sapiens, UniProt Q9H2X9, S963A)
# T1 construct: expressed in transfected cells; host or cells: HEK-293
# T1 sequence (Q9H2X9 1-1116 isoform Q9H2X9-2 S940A): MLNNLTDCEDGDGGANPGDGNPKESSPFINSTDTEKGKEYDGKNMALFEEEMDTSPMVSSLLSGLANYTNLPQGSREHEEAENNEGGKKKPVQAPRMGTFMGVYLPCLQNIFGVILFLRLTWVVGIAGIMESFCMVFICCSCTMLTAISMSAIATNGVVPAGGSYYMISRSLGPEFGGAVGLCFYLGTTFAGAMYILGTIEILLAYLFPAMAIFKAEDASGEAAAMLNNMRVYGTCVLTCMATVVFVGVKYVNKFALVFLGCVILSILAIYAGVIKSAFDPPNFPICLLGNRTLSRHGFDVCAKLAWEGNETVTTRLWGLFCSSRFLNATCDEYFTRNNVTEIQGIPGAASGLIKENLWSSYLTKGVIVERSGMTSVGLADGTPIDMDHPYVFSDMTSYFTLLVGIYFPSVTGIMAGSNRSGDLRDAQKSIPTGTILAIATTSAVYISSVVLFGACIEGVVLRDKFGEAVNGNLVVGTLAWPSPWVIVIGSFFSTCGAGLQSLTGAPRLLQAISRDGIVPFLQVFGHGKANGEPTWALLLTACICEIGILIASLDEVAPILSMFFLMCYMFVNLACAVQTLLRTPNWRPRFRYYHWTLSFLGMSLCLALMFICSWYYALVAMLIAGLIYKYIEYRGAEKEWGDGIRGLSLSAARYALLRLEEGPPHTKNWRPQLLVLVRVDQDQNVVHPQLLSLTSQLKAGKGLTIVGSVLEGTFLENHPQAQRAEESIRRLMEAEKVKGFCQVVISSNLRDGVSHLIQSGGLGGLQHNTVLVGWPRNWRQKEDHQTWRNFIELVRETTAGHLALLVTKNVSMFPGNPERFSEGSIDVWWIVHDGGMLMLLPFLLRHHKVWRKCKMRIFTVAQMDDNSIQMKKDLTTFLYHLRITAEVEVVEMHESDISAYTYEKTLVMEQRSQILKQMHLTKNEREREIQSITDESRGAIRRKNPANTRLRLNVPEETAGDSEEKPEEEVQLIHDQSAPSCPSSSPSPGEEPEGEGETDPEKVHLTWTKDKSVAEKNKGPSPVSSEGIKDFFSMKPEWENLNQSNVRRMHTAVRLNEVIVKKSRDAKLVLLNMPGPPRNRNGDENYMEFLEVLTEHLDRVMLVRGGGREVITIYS
# Experiment: Tl+ flux assay, KCC2-S940A construct in HEK-293 cells
# Assay type: cell-based
# Description: FLIPR TI Flux assay. HEK-293 cells were washed with HBSS, and then incubated with loading buffer containing TI sensitive fluorescent dye (https://www.moleculardevices.com), 20 μM bumetanide 20 μM ouabain and 2.5 mM probenecid for 1 h at room temperature (RT) under control conditions or with drugs in the dark using a FlexStation 3 microplate reader (Molecular Devices) and imaged […] for 30 min. Stimulus buffer was added containing 5 mM K^+/0.5 mM Tl^+ and cells were imaged every 1.5 over a 190 second time course The initial rate Tl^+ uptake (Relative Fluorescence Units (RFU) per second) was determined following addition of the stimulus buffer as outlined previously (Conway et al., 2017, supra) (Lee et al., 2022, supra).
# Several studies have shown that the activity and plasma membrane accumulation of KCC2 is potentiated via phosphorylation of S940, a process mediated by the activity of protein kinase C and protein phosphatase 1 (Lee et al, 2011, supra; Lee et al., J Biol Chem 282, 29777-29784 (2007); Moore et al., Proc. Natl. Acad. Sci. U.S.A 115, 10166-10171 (2018); Moore et al., Trends Neurosci. 40, 555-571 (2017); Silayeva et al., Proc. Natl. Acad. Sci. U.S.A. 112, 3523-3528 (2015)). […] Compared to KCC2, effects on KCC3, KCC4, and NKCC1 were only seen at concentrations more than 35-fold that of KCC2 (>100 μM) (FIG. 1G).
compound,measurement,value
"C[C@@H]1CN(c2nc3c(c(Nc4ccc(C5CCCCC5)cc4)n2)COC3)CCO1 [Compound A, (R)—N-(4-cyclohexylphenyl)-2-(2-methylmorpholino)-5,7-dihydrofuro[3,4-d]pyrimidin-4-amine]",activity of KCC2-S940A construct,increased the activity
